Results taken from patent US10758534B2 (Vertex Pharmaceuticals Incorporated, priority 2014, dated 2020).

Target: T1, F508del (Homo sapiens, UniProt P13569, DEL508-508)
T1 construct: expressed in transfected cells
Assay: Protocol 1: membrane potential optical assay (FLIPR III, voltage sensing dye), identification of potentiator compounds
Format: cell-based
Settings: Table 3, compounds of Table 1
How it was run: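 NIH3T3 F508del cells, 27° C × 24 hrs; compound/DMSO pretreat → redistribution dye load → single forskolin addition with Cl⁻ gradient (gluconate-substituted bath, HEPES pH 7.4). FLIPR III membrane-potential fluorescence read.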

T1 sequence (P13569 with tags, fused parts or gaps DEL508-508): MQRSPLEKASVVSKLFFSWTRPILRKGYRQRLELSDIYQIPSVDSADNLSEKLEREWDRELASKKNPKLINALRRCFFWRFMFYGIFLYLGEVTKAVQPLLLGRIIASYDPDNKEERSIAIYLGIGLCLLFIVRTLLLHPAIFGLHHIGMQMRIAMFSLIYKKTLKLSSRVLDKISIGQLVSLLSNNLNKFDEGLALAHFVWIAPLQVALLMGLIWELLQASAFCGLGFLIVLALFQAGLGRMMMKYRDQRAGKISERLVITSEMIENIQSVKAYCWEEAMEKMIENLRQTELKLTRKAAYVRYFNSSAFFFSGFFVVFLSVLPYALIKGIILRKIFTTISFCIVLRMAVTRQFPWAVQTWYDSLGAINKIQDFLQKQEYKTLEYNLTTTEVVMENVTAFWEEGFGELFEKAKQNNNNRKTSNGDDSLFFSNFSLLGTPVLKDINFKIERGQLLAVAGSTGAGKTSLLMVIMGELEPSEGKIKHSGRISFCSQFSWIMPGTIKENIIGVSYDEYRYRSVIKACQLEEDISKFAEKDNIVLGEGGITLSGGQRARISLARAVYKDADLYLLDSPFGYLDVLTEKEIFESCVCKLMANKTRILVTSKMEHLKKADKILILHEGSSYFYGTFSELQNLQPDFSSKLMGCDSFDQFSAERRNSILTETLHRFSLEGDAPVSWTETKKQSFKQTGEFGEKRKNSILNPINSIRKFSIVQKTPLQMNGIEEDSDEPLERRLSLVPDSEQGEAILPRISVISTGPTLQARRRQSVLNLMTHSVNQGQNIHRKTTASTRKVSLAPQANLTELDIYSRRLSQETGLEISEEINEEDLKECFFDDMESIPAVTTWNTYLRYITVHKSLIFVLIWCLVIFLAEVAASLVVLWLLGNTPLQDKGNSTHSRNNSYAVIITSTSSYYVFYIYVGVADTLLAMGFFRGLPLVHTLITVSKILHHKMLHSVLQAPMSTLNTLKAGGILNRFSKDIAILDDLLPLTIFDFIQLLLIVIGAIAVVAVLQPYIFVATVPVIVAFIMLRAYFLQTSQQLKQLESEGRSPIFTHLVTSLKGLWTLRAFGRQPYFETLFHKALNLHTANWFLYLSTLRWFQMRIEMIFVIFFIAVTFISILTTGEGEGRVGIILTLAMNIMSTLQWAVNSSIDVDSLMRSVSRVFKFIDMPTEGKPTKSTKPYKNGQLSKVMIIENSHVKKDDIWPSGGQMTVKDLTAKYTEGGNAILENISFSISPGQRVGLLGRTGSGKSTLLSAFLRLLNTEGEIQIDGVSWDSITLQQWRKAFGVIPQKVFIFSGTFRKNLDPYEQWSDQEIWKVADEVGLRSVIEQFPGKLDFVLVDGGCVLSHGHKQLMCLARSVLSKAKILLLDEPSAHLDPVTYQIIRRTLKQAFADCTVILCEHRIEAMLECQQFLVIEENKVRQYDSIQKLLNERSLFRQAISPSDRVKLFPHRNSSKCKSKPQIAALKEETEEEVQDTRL

## Cc1cc(C#N)cc(C)c1Oc1nc(C(C)(C)C)ccc1C(=O)NS(=O)(=O)c1cccc(N)n1 [Compound 1089, N-[(6-amino-2-pyridyl)sulfonyl]-6-tert-butyl-2-(4-cyano-2,6-dimethyl-phenoxy)pyridine-3-carboxamide]
  EC30: +++ (“+++” means <3 uM)

## COc1cccc(S(=O)(=O)NC(=O)c2ccc(-c3cc(F)cc(OCC(C)C)c3)nc2N2CCC(C)(C)CC2)n1 [Compound 1090, 2-(4,4-dimethyl-1-piperidyl)-6-(3-fluoro-5-isobutoxy-phenyl)-N-[(6-methoxy-2-pyridyl)sulfonyl]pyridine-3-carboxamide]
  EC30: +++ (“+++” means <3 uM)

## Cc1cc(C)c(Oc2nc(C3CCC(C)(C)CC3)ccc2C(=O)NS(=O)(=O)c2ccc[nH]c2=O)c(C)c1 [Compound 1091, 6-(4,4-dimethylcyclohexyl)-N-[(2-oxo-1H-pyridin-3-yl)sulfonyl]-2-(2,4,6-trimethylphenoxy)pyridine-3-carboxamide]
  EC30: +++ (“+++” means <3 uM)

## CC(C)Oc1ccc(-c2ccc(C(=O)NS(=O)(=O)c3cccc(N)n3)c(N3CCC(Oc4ccccc4)C3)n2)cn1 (stereo not drawn) [Compound 1092, N-[(6-amino-2-pyridyl)sulfonyl]-6-(6-isopropoxy-3-pyridyl)-2-(3-phenoxypyrrolidin-1-yl)pyridine-3-carboxamide]
  EC30: ++ (“++” means between 3 uM and 10 uM)

## Cc1cc(C)c(CN2CCc3ccccc3CC2C(=O)NS(=O)(=O)c2ccccn2)c(C)c1 (stereo not drawn) [Compound 1093, N-(2-pyridylsulfonyl)-3-[(2,4,6-trimethylphenyl)methyl]-1,2,4,5-tetrahydro-3-benzazepine-4-carboxamide]
  EC30: ++ (“++” means between 3 uM and 10 uM)

## CC(C)COc1ccc(-c2ccc(C(=O)NS(=O)(=O)c3cccc(N)n3)c(N3CCC(C)CC3)n2)cc1 [Compound 1094, N-[(6-amino-2-pyridyl)sulfonyl]-6-(4-isobutoxyphenyl)-2-(4-methyl-1-piperidyl)pyridine-3-carboxamide]
  EC30: +++ (“+++” means <3 uM)

## Cc1cc(C)c(Oc2nc(-c3cccc(Cl)c3)ccc2C(=O)NS(=O)(=O)c2ccc[nH]c2=O)c(C)c1 [Compound 1095, 6-(3-chlorophenyl)-N-[(2-oxo-1H-pyridin-3-yl)sulfonyl]-2-(2,4,6-trimethylphenoxy)pyridine-3-carboxamide]
  EC30: ++ (“++” means between 3 uM and 10 uM)

## CCOc1cc(F)cc(-c2ccc(C(=O)NS(=O)(=O)c3ccc[nH]c3=O)c(N3[C@H](C)CC[C@@H]3C)n2)c1 [Compound 1096, 2-[(2R,5S)-2,5-dimethylpyrrolidin-1-yl]-6-(3-ethoxy-5-fluoro-phenyl)-N-[(2-oxo-1H-pyridin-3-yl)sulfonyl]pyridine-3-carboxamide]
  EC30: ++ (“++” means between 3 uM and 10 uM)

## CC(C)COc1cc(F)cc(-c2ccc(C(=O)NS(=O)(=O)c3cccc(N)n3)c(N3CCC[C@H]3C(C)(C)C)n2)c1 [Compound 1097, N-[(6-amino-2-pyridyl)sulfonyl]-2-[(2S)-2-tert-butylpyrrolidin-1-yl]-6-(3-fluoro-5-isobutoxy-phenyl)pyridine-3-carboxamide]
  EC30: +++ (“+++” means <3 uM)

## CC(C)COc1cc(F)cc(-c2ccc(C(=O)NS(=O)(=O)c3cccc(N)n3)c(N3CCCC(C(C)C)C3)n2)c1 (stereo not drawn) [Compound 1098, N-[(6-amino-2-pyridyl)sulfonyl]-6-(3-fluoro-5-isobutoxy-phenyl)-2-(3-isopropyl-1-piperidyl)pyridine-3-carboxamide]
  EC30: +++ (“+++” means <3 uM)

## CCOc1cc(F)cc(-c2ccc(C(=O)NS(=O)(=O)c3cccc(N)n3)c(N3CC(C)CC3(C)C)n2)c1 (stereo not drawn) [Compound 1099, N-[(6-amino-2-pyridyl)sulfonyl]-6-(3-ethoxy-5-fluoro-phenyl)-2-(2,2,4-trimethylpyrrolidin-1-yl)pyridine-3-carboxamide]
  EC30: +++ (“+++” means <3 uM)

## CC1CN(c2nc(-c3ccc(Cl)cc3)ccc2C(=O)NS(=O)(=O)c2cccc(N)n2)C(C)(C)C1 (stereo not drawn) [Compound 1100, N-[(6-amino-2-pyridyl)sulfonyl]-6-(4-chlorophenyl)-2-(2,2,4-trimethylpyrrolidin-1-yl)pyridine-3-carboxamide]
  EC30: +++ (“+++” means <3 uM)

## Cc1cc(C)c(CN2C(C(=O)NS(=O)(=O)c3cccc(N)n3)c3ccccc3C2(C)C)c(C)c1 (stereo not drawn) [Compound 1101, N-[(6-amino-2-pyridyl)sulfonyl]-3,3-dimethyl-2-[(2,4,6-trimethylphenyl)methyl]isoindoline-1-carboxamide]
  EC30: +++ (“+++” means <3 uM)

## Cc1cc(C)c(Oc2nc(-c3ccccc3)cc(C)c2C(=O)NS(=O)(=O)c2cccc(N)n2)c(C)c1 [Compound 1102, N-[(6-amino-2-pyridyl)sulfonyl]-4-methyl-6-phenyl-2-(2,4,6-trimethylphenoxy)pyridine-3-carboxamide]
  EC30: +++ (“+++” means <3 uM)

## Cc1cc(C)c(Oc2nc(-c3cnn(CC(C)C)c3)ccc2C(=O)NS(=O)(=O)c2nccnc2N)c(C)c1 [Compound 1103, N-(3-aminopyrazin-2-yl)sulfonyl-6-(1-isobutylpyrazol-4-yl)-2-(2,4,6-trimethylphenoxy)pyridine-3-carboxamide]
  EC30: +++ (“+++” means <3 uM)

## Cc1cc(F)ccc1Oc1nc(C(C)(C)C)ccc1C(=O)NS(=O)(=O)c1cccc(N)n1 [Compound 1104, N-[(6-amino-2-pyridyl)sulfonyl]-6-tert-butyl-2-(4-fluoro-2-methyl-phenoxy)pyridine-3-carboxamide]
  EC30: +++ (“+++” means <3 uM)

## Cc1cc(C)c(Oc2nc(-c3cccc(OCC4CC4)c3)ccc2C(=O)NS(=O)(=O)c2ccc[nH]c2=O)c(C)c1 [Compound 1105, 6-[3-(cyclopropylmethoxy)phenyl]-N-[(2-oxo-1H-pyridin-3-yl)sulfonyl]-2-(2,4,6-trimethylphenoxy)pyridine-3-carboxamide]
  EC30: + (“+” means greater than 10 uM)

## Cc1cc(C)c(Cn2nc(C(C)(C)C)cc2C(=O)NS(=O)(=O)c2cccnc2N)c(C)c1 [Compound 1106, N-[(2-amino-3-pyridyl)sulfonyl]-5-tert-butyl-2-[(2,4,6-trimethylphenyl)methyl]pyrazole-3-carboxamide]
  EC30: + (“+” means greater than 10 uM)

## CC(C)Oc1ccc(-c2ccc(C(=O)NS(=O)(=O)c3cccc(N)n3)c(N3CC4CCCC4C3)n2)cn1 (stereo not drawn) [Compound 1107, 2-(3,3a,4,5,6,6a-hexahydro-1H-cyclopenta[c]pyrrol-2-yl)-N-[(6-amino-2-pyridyl)sulfonyl]-6-(6-isopropoxy-3-pyridyl)pyridine-3-carboxamide]
  EC30: +++ (“+++” means <3 uM)

## CC(C)COc1cc(F)cc(-c2ccc(C(=O)NS(=O)(=O)c3cccc(N)n3)c(OC3CCCCC3C)n2)c1 (stereo not drawn) [Compound 1108, N-[(6-amino-2-pyridyl)sulfonyl]-6-(3-fluoro-5-isobutoxy-phenyl)-2-(2-methylcyclohexoxy)pyridine-3-carboxamide]
  EC30: +++ (“+++” means <3 uM)

## CC(C)COc1ccc(F)c(-c2ccc(C(=O)NS(=O)(=O)c3cccc(N)n3)c(N3CCC(C)CC3)n2)c1 [Compound 1109, N-[(6-amino-2-pyridyl)sulfonyl]-6-(2-fluoro-5-isobutoxy-phenyl)-2-(4-methyl-1-piperidyl)pyridine-3-carboxamide]
  EC30: ++ (“++” means between 3 uM and 10 uM)
